Series [1] is described as follows: CBD solubility in liquid vehicles (excess CBD, shaking 24 h, HPLC). The series is classed as physicochemical. The method, then: The solubility of CBD in the investigated liquids was examined by adding the excess mass of CBD into 1 g of each test liquid in a test tube. The mixture was sonicated (1 h) using an ultrasonicator (Model LUC-405, Daihan Labtech Co., Ltd., Namyangju-si, Korea) and agitated constantly (37 ± 0.5 °C, 24 h) using a shaking water bath (Model LSB-030S, Daihan Labtech Co., Ltd., Namyangju-si, Korea), and the supernatant was filtered through a 0.45 μm syringe filter. The obtained filtrate was weighed, diluted and quantified by HPLC assay. The CBD solubility in the terms of the mg of CBD per g of liquid was calculated.
The amount of CBD was assessed using a modified HPLC method. An Agilent series 1260 combined with an Agilent ZORBAX Eclipse Plus column (C18, 100 × 4.6 mm, 3.5 μm) (Agilent Technologies, Inc., Santa Clara, CA, USA.) was used. The chromatographic separation was attained in 10 min using an isocratic protocol with a mixture of water:acetonitrile (30:70 v/v) comprising 0.1% formic acid set at a 1.5 mL/min flow rate. The injection volume was 20 µL. The column temperature was set at 45 °C, while the UV detector was set to 220 nm.

On the set-up of series [2]: method as in PMID 34774694, PMID 32882367. The following applies: ref [3],[4]; cited from earlier work.
The conditions of series [3]: cited from earlier work.

Where “and” joins values, the source holds several entries; their conditions need not be identical. Identical values can stand only once. Like-named read-outs stand apart in the source and are kept apart here. Marks after values point to notes of the source that are not given here. Some results are limits rather than exact numbers.

For the compound `C=C(C)[C@@H]1CCC(C)=C[C@H]1c1c(O)cc(CCCCC)cc1O` [CBD, Cannabidiol], the “CBD Solubility” value in series [1] (in CM, 37 ± 0.5 °C) was 386.77 ± 48.85 ^b mg/g; in series [1] (in DEGEE, 37 ± 0.5 °C), 579.46 ± 11.79 ^a mg/g; in series [1] (in EtOH, 37 ± 0.5 °C) it was above 1000 mg/g; in series [1] (in OM, 37 ± 0.5 °C), 540.31 ± 4.59 ^a mg/g; in series [1] (in P20, 37 ± 0.5 °C), 261.73 ± 39.33 ^c mg/g; in series [1] (in PEG, 37 ± 0.5 °C), 342.18 ± 49.90 ^b mg/g. Besides, the “CBD Solubility” value in series [1] (in PG, 37 ± 0.5 °C) is on record as 521.04 ± 55.42 ^a mg/g; in series [1] (in glycerin, 37 ± 0.5 °C), 0.09 ± 0.03 ^d mg/g. The solubility (in general, the dissolved amount per volume that the medium holds) at 24 h in series [1] (simulated saliva fluid (SSF), simulated saliva fluid pH 6.8, read-out: solubility of CBD in pH 6.8 SSF) is below 5 µg/mL; in series [1] (water, converted with the specific gravity of water, read-out: CBD solubility in water), below 5 µg/mL. The “calculated log n-octanol–water partition coefficient (Kow)” value in series [2] is 8 and ~ 8. Moreover, the “solubility of CBD in 50% EtOH” value in series [3] (50% EtOH receiver medium, ref Casirahi et al. [44]) was 2200 ± 100 µg/mL. For the same compound, the water solubility in series [3] (ref [3],[4]) is on record as 5 ppm.

The values are drawn from PMC9503133, “In Vitro Release, Mucosal Permeation and Deposition of Cannabidiol from Liquisolid Systems: The Influence of Liquid Vehicles” (Pharmaceutics, 2022).
